Laboratory results reported in patent US8877707B2, “Inhibitors of HCV NS5A” (Presidio Pharmaceuticals, Inc., priority 2010, dated 2014).
pEC50: −log10 of the molar value. Where two headings read alike, the source gives them in different places.

Test system: HCV genotype 1b replicon in Huh 7 cells
Assay: HCV replicon assay (1b_Huh-Luc/Neo-ET cell line, luciferase readout)
Format: cell-based
Details: Hepatitis C virus, read-out: Inhibition of HCV genotype 1b
Procedure, shortened: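 Huh 7 cells carrying a bicistronic genotype 1b luciferase replicon were treated with compound in triplicate the day after plating and incubated 72 h. Luciferase activity expressed as % of untreated control; EC50 from a four-parameter logistic fit, repeated several times.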

[1] = Table 1, genotype 1b replicon, Huh 7 cells, 72 h, luciferase
[2] = Table 2, genotype 1b replicon, Huh 7 cells, 72 h, luciferase

Row | SMILES | pEC50 [1] | pEC50 (Huh-7, HCV 1b replicon) | further results
1 | C#CC[C@H](NC(=O)OC)C(=O)N1CCC[C@H]1c1ncc(-c2ccc3nc(-c4ccc(-c5cnc([C@@H]6CCCN6C(=O)[C@@H](NC(=O)OC)C(C)C)[nH]5)cc4F)ccc3c2)[nH]1 [compound 161] | > 9.00 |  | 
2 | COC(=O)N[C@H](C(=O)N1CCC[C@H]1c1nc(-c2ccc3nc(-c4ccc(-c5cnc([C@@H]6CCCN6C(=O)[C@H](NC(=O)OC)c6ccccc6)[nH]5)cc4F)ccc3c2)c[nH]1)C(C)C [compound 107] | > 9.00 |  | 
3 | COC(=O)N[C@H](C(=O)N1CCC[C@H]1c1ncc(-c2ccc3nc(-c4ccc(-c5cnc([C@@H]6CCCN6C(=O)[C@H](NC(=O)OC)c6ccccc6)[nH]5)c(F)c4)ccc3c2)[nH]1)C1CCCC1 [compound 468] |  | > 9.00 | 
4 | COC(=O)N[C@H](C(=O)N1CCC[C@H]1c1nc2c([nH]1)-c1ccc(-c3ccc4cc(-c5cnc([C@@H]6CCCN6C(=O)[C@H](NC(=O)OC6CCOCC6)c6ccccc6)[nH]5)ccc4n3)cc1CCC2)C(C)C [compound 540] |  | > 9.00 | 
5 | COC(=O)N[C@H](C(=O)N1CCC[C@H]1c1ncc(-c2ccc(-c3ccc4cc(-c5c[nH]c([C@@H]6CCCN6C(=O)[C@H](NC(=O)OC)c6ccccc6)n5)ccc4c3)nc2)[nH]1)C(C)C [compound 48] | > 9.00 |  | 
6 | COC(=O)N[C@H](C(=O)N1CCC[C@H]1C(=O)Nc1ccc(-c2ccc3cc(-c4cnc([C@@H]5CCCN5C(=O)[C@@H](NC(=O)OC)C5CCOCC5)[nH]4)ccc3n2)cc1)C1CCOCC1 [compound 542] |  | 8.00 to 9.00 | 
7 | COC(=O)N[C@H](C(=O)N1CCC[C@H]1c1nc(-c2ccc3cc(-c4ccc(-c5cnc([C@@H]6CCCN6C(=O)[C@@H](NC(=O)OC)C(C)C)[nH]5)cc4)ccc3c2)c[nH]1)C(C)C [compound 1] | > 9.00 |  | 
8 | C=CC[C@H](NC(=O)OC)C(=O)N1CCC[C@H]1c1ncc(-c2ccc3nc(-c4ccc(-c5cnc([C@@H]6CCCN6C(=O)[C@H](NC(=O)OC)c6ccccc6)[nH]5)cc4F)ccc3c2)[nH]1 [compound 486] |  | > 9.00 | 
9 | CC[C@@H](C)[C@H](NC(=O)OC)C(=O)N1CCC[C@H]1c1ncc(-c2ccc3cc(-c4ccc5nc([C@@H]6CCCN6C(=O)[C@@H](NC(=O)OC)[C@H](C)CC)[nH]c5c4)ncc3c2)[nH]1 [compound 375] |  |  | pEC50 [2]: > 9.00
10 | CCC(CC)[C@H](NC(=O)OC)C(=O)N1CCC[C@H]1c1ncc(-c2ccc3cc(-c4ccc5nc([C@@H]6COCCN6C(=O)[C@@H](NC(=O)OC)C(CC)CC)[nH]c5c4)ccc3c2)[nH]1 [compound 351] |  |  | pEC50 [2]: > 9.00
11 | COC(=O)N[C@H](C(=O)N1CCC[C@H]1c1nc(-c2cnc3cc(-c4ccc(-c5cnc([C@@H]6CCCN6C(=O)[C@H](NC(=O)OC6CCOCC6)c6ccccc6)[nH]5)cc4)ccc3c2)c[nH]1)C(C)C [compound 88] | > 9.00 |  | 
12 | CCNC(=O)N[C@@H](C(=O)N1CCC[C@H]1c1nc(-c2ccc3nc(-c4ccc(-c5cnc([C@@H]6CCCN6C(=O)[C@@H](NC(=O)OC)C(C)C)[nH]5)cc4)ccc3c2)c[nH]1)c1ccccc1 [compound 37] | > 9.00 |  | 
13 | COC(=O)N[C@H](C(=O)N1CCC[C@H]1c1ncc(-c2ccc(-c3nc4ccc(-c5cnc([C@@H]6CCCN6C(=O)[C@H](NC(=O)OC)c6ccccc6)[nH]5)cc4s3)cc2)[nH]1)C(C)C [compound 241] | > 9.00 |  | 
14 | COC[C@H](NC(=O)OC)C(=O)N1CCOC[C@H]1c1ncc(-c2ccc3cc(-c4ccc(-c5cnc([C@@H]6CCCN6C(=O)[C@H](NC(=O)OC)c6ccccc6)[nH]5)cc4)ccc3c2)[nH]1 [325-1] |  |  | pEC50 [2]: > 9.00
15 | COC(=O)N[C@H](C(=O)N1CCC[C@H]1c1ncc(-c2ccc3cc(-c4ccc5nc([C@@H]6CCCN6C(=O)[C@@H](NC(=O)OC)C6CCCCC6)[nH]c5n4)ccc3c2)[nH]1)C1CCCCC1 [compound 517] |  | > 9.00 | 
16 | COC(=O)N[C@H](C(=O)N1CCC[C@H]1c1ncc(-c2ccc3cc(-c4ccc(-c5cnc([C@@H]6COCCN6C(=O)[C@H](NC(=O)OC)c6ccccc6)[nH]5)cc4)ccc3c2)[nH]1)C1CCOCC1 [compound 169] | > 9.00 |  | 
17 | COC(=O)N[C@@H](CC(C)C)C(=O)N1CCC[C@H]1c1ncc(-c2ccc3nc(-c4ccc(-c5cnc([C@@H]6CCCN6C(=O)[C@H](NC(=O)OC)c6ccccc6)[nH]5)c(F)c4)ccc3c2)[nH]1 [compound 467] |  | > 9.00 | 
18 | COC(=O)N[C@H](C(=O)N1CCC[C@H]1c1ncc(-c2ccc(-c3ccc4cc(-c5c[nH]c([C@@H]6CCCN6C(=O)[C@@H](NC(=O)OC)C6CCOCC6)n5)ccc4c3)c(C)c2)[nH]1)C(C)C [compound 104] | > 9.00 |  | 
